# Laboratory results as given in patent publication US11472803B2, “7-substituted 1-aryl-naphthyridine-3-carboxylic acid amides and use thereof” (Bayer Aktiengesellschaft, priority 2016, dated 2022).
# Target: T1, human M2 receptor (Homo sapiens, UniProt P08172)
# T1 construct: expressed in transfected cells; host or cells: CHO-DUKX (CHO-DUKX-M2-GIRK)
# T1 sequence (P08172 1-466): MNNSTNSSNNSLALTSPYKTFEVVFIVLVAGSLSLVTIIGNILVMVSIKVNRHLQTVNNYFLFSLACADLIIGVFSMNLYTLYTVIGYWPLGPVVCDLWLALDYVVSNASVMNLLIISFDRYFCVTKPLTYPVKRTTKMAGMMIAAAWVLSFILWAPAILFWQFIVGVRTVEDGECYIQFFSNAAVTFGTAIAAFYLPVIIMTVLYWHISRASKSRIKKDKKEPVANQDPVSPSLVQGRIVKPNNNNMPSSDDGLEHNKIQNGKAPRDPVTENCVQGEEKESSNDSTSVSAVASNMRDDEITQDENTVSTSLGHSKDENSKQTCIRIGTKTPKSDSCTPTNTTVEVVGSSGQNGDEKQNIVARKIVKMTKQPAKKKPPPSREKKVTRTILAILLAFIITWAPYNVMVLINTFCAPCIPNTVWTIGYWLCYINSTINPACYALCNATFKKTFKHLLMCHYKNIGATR
# Experiment: Functional M2-GIRK1/4 activation test: allosteric potency (EC50) and efficiency at EC20 acetylcholine
# Assay type: cell-based
# Conditions: CHO-DUKX-M2-GIRK cells; for EC50: voltage-sensitive dye, acetylcholine at EC20, in some cases mean of two or more determinations; for Emax: boosting of the acetylcholine effect at EC20 acetylcholine concentration
# From the text: The binding of orthosteric agonists (endogenous ligand: acetylcholine) to the M2 receptor leads to receptor activation or a change in conformation of the receptor in the manner of a shift in equilibrium in favour of the active receptor conformation.
# The agonist-induced change in conformation of the M2 receptor results in a Gαi protein activation. […] Under physiological conditions, the result is then a selective efflux of potassium from the cell along the electrochemical gradient. […] The extent of hyperpolarization can therefore be regarded as a measure of the activation of the M2 receptor.
# The test cell used is a recombinant CHO-DUKX cell line which has been stably transfected with cDNA coding for the human M2 receptor and with cDNA coding for both GIRK1/4 subunits (CHO-DUKX-M2-GIRK). The transmembrane potential, or the relative changes in the transmembrane potential as a function of substance addition or M2 activation, is determined by means of a voltage-sensitive dye (FLIPR Membrane Potential Assay Kit Blue, Molecular Devices #R8034) and the measurement of cell fluorescence using a proprietary fluorescence imaging instrument.
# The sowing medium consisted of MEM alpha medium (supplemented with 5% PCS, 2% Glutamax, no genticin).
# For the particular measurement, the medium was removed and the cells were laden with the volt-age-sensitive dye for at least 6 min at room temperature (30 μl of loading buffer per 384-well). This was followed, in a first measurement, by the determination of the fluorescence for the resting transmembrane potential for a period of 5 sec. Thereafter, 10 μl in each case of the test substances diluted in loading buffer were added, followed by a second measurement to determine the transmembrane potential for a period of 50 sec in 1 sec increments. Finally, the cells were admixed with 10 μl of agonist solution (acetylcholine dissolved in loading buffer). Acetylcholine was used at the concentration corresponding to the EC20, which had been determined in a preliminary test. The M2-mediated GIRK1/4 activation or hyperpolarization was then monitored in a third measurement over a period of 60 sec. The EC50 value (degree of allosteric potency of test compound) and the efficiency (measure of the boosting of the acetylcholine effect at an EC20 acetylcholine concentration) were determined with the aid of a 4-parameter logistic function (Hill function).
Compound,EC50 [nM],Emax [%]
"CCC(NC(=O)c1cn(-c2c(F)cc(F)cc2F)c2nc(N3C[C@@H](O)[C@H](O)C3)c(F)cc2c1=O)C(C)C (mixture of isomers) [Example 28, 7-[(3R,4R)-3,4-Dihydroxypyrrolidin-1-yl]-6-fluoro-N-(2-methylpentan-3-yl)-4-oxo-1-(2,4,6-trifluorophenyl)-1,4-dihydro-1,8-naphthyridine-3-carboxamide]",3.15,100
"CCC(NC(=O)c1cn(-c2c(F)cc(F)cc2F)c2nc(N3C[C@@H](O)[C@@H](O)C3)c(F)cc2c1=O)C(C)C (mixture of isomers) [Example 104, 7-[(3R,4S)-3,4-Dihydroxypyrrolidin-1-yl]-6-fluoro-N-[2-methylpentan-3-yl]-6-fluoro-4-oxo-1-(2,4,6-trifluorophenyl)-1,4-dihydro-1,8-naphthyridine-3-carboxamide]",13,97
"CCC(COC(F)(F)F)NC(=O)c1cn(-c2c(F)cc(F)cc2F)c2nc(N3CC[C@H](O)C3)c(F)cc2c1=O (mixture of isomers) [Example 109, 6-Fluoro-7-[(3S)-3-hydroxypyrrolidin-1-yl]-4-oxo-N-[1-(trifluoromethoxy)butan-2-yl]-1-(2,4,6-trifluorophenyl)-1,4-dihydro-1,8-naphthyridine-3-carboxamide]",7.7,100
"CCC(NC(=O)c1cn(-c2c(F)cc(F)cc2F)c2nc(N3CC[C@H](O)C3)c(F)cc2c1=O)C(C)C (mixture of isomers) [Example 116, 6-Fluoro-7-[(3S)-3-hydroxypyrrolidin-1-yl]-N-[2-methylpentan-3-yl]-4-oxo-1-(2,4,6-trifluoro-phenyl)-1,4-dihydro-1,8-naphthyridine-3-carboxamide]",3.5,97
"CC(C)C(NC(=O)c1cn(-c2c(F)cc(F)cc2F)c2nc(N3CC[C@H](O)C3)c(F)cc2c1=O)C(F)(F)F (mixture of isomers) [Example 126, 6-Fluoro-7-[(3S)-3-hydroxypyrrolidin-1-yl]-4-oxo-N-[1,1,1-trifluoro-3-methylbutan-2-yl]-1-(2,4,6-trifluorophenyl)-1,4-dihydro-1,8-naphthyridine-3-carboxamide]",3.9,97
"O=C(NC(c1ccccc1Cl)C(F)(F)F)c1cn(-c2c(F)cc(F)cc2F)c2nc(N3C[C@@H](O)[C@H](O)C3)c(F)cc2c1=O (mixture of isomers) [Example 131, N-[1-(2-Chlorophenyl)-2,2,2-trifluoroethyl]-7-[(3R,4R)-3,4-dihydroxypyrrolidin-1-yl]-6-fluoro-4-oxo-1-(2,4,6-trifluorophenyl)-1,4-dihydro-1,8-naphthyridine-3-carboxamide]",4.6,100
"O=C(NC(c1ccccc1Cl)C(F)(F)F)c1cn(-c2ccc(F)cc2F)c2ncc(Cl)cc2c1=O (racemic) [Example 134, 6-Chloro-N-[1-(2-chlorophenyl)-2,2,2-trifluoroethyl]-1-(2,4-difluorophenyl)-4-oxo-1,4-dihydro-1,8-naphthyridine-3-carboxamide]",1830,55
"CC(COC(F)(F)F)NC(=O)c1cn(-c2ccc(F)cc2F)c2ncc(Cl)cc2c1=O (racemic) [Example 135, 6-Chloro-1-(2,4-difluorophenyl)-4-oxo-N-[1-(trifluoromethoxy)propan-2-yl]-1,4-dihydro-1,8-naphthyridine-3-carboxamide]",2610,75
"CCC(NC(=O)c1cn(-c2c(F)cc(F)cc2F)c2nc(N3CCOCC3)c(F)cc2c1=O)C(F)(F)C(F)(F)F (racemic) [Example 148, 6-Fluoro-7-(morpholin-4-yl)-4-oxo-N-[1,1,1,2,2-pentafluoropentan-3-yl]-1-(2,4,6-trifluoro-phenyl)-1,4-dihydro-1,8-naphthyridine-3-carboxamide]",18.7,96
"CC(C)(NC(=O)c1cn(-c2c(F)cc(F)cc2F)c2nc(N3CC4(COC4)C3)c(F)cc2c1=O)C(F)(F)C(F)(F)F (racemic) [Example 163, 6-Fluoro-7-(2-oxa-6-azaspiro[3.3]hept-6-yl)-4-oxo-N-(3,3,4,4,4-pentafluoro-2-methylbutan-2-yl)-1-(2,4,6-trifluorophenyl)-1,4-dihydro-1,8-naphthyridine-3-carboxamide]",25,93

# Second part, the compound after the results:
EC50 [nM],Emax [%],Compound
20.5,100,"CC(NC(=O)c1cn(-c2ncc(F)cc2F)c2nc(N3C[C@@H](O)[C@H](O)C3)c(F)cc2c1=O)C(F)(F)C(F)(F)F (mixture of isomers) [Example 39, 1-(3,5-difluoropyridin-2-yl)-7-[(3R,4R)-3,4-dihydroxypyrrolidin-1-yl]-6-fluoro-4-oxo-N-[(2)-3,3,4,4,4-pentafluorobutan-2-yl]-1,4-dihydro-1,8-naphthyridine-3-carboxamide]"
2.6,100,"CCC(NC(=O)c1cn(-c2c(F)cc(F)cc2F)c2nc(N3C[C@@H](O)[C@H](O)C3)c(Br)cc2c1=O)C(F)(F)C(F)(F)F (mixture of isomers) [Example 157, 6-Bromo-7-[(3R,4R)-3,4-dihydroxypyrrolidin-1-yl]-4-oxo-N-[1,1,1,2,2-pentafluoropentan-3-yl]-1-(2,4,6-trifluorophenyl)-1,4-dihydro-1,8-naphthyridine-3-carboxamide]"
–,96,"CC(NC(=O)c1cn(-c2c(F)cc(F)cc2F)c2nc(N3C[C@@H](O)[C@H](O)C3)c(F)cc2c1=O)C(F)(F)C(F)(F)F (mixture of isomers) [Example 8, 7-[(3R,4R)-3,4-Dihydroxypyrrolidin-1-yl]-6-fluoro-4-oxo-N-[3,3,4,4,4-pentafluorobutan-2-yl]-1-(2,4,6-trifluorophenyl)-1,4-dihydro-1,8-naphthyridine-3-carboxamide]"
–,100,"CC(NC(=O)c1cn(-c2c(F)cc(F)cc2F)c2nc(N3C[C@@H](O)[C@@H](O)C3)c(F)cc2c1=O)C(F)(F)C(F)(F)F (mixture of isomers) [Example 92, 7-[(3R,4S)-3,4-Dihydroxypyrrolidin-1-yl]-6-fluoro-4-oxo-N-[3,3,4,4,4-pentafluorobutan-2-yl]-1-(2,4,6-trifluorophenyl)-1,4-dihydro-1,8-naphthyridine-3-carboxamide]"
15.5,100,"CCC(COC(F)(F)F)NC(=O)c1cn(-c2c(F)cc(F)cc2F)c2nc(N3C[C@@H](O)[C@@H](O)C3)c(F)cc2c1=O (mixture of isomers) [Example 95, 7-[(3R,4S)-3,4-Dihydroxypyrrolidin-1-yl]-6-fluoro-4-oxo-N-[1-(trifluoromethoxy)butan-2-yl]-1-(2,4,6-trifluorophenyl)-1,4-dihydro-1,8-naphthyridine-3-carboxamide]"
3.1,100,"CC(C)C(NC(=O)c1cn(-c2c(F)cc(F)cc2F)c2nc(N3C[C@@H](O)[C@@H](O)C3)c(F)cc2c1=O)C(F)(F)F (mixture of isomers) [Example 123, 7-[(3R,4S)-3,4-Dihydroxypyrrolidin-1-yl]-6-fluoro-4-oxo-N-[1,1,1-trifluoro-3-methylbutan-2-yl]-1-(2,4,6-trifluorophenyl)-1,4-dihydro-1,8-naphthyridine-3-carboxamide]"
13,92,"CC(NC(=O)c1cn(-c2ncc(F)cc2F)c2nc(N3CC[C@H](O)C3)c(F)cc2c1=O)C(F)(F)C(F)(F)F (mixture of isomers) [Example 127, 1-(3,5-Difluoropyridin-2-yl)-6-fluoro-7-[(3S)-3-hydroxypyrrolidin-1-yl]-4-oxo-N-[3,3,4,4,4-pentafluorobutan-2-yl]-1,4-dihydro-1,8-naphthyridine-3-carboxamide]"
12,100,"CC(NC(=O)c1cn(-c2c(F)cc(F)cc2F)c2nc(N3CCOCC3)c(F)cc2c1=O)C(F)(F)C(F)(F)F (racemic) [Example 146, 6-Fluoro-7-(morpholin-4-yl)-4-oxo-N-[3,3,4,4,4-pentafluorobutan-2-yl]-1-(2,4,6-trifluoro-phenyl)-1,4-dihydro-1,8-naphthyridine-3-carboxamide]"
